Experimental data as given in patent US9018188B2, “MicroRNA inhibitors” (Ottawa Hospital Research Institute, priority 2011, dated 2015).

Experiments:
Format in all cases: in vivo, mouse
[1] = Body weight and fat depot weights after ASO treatment during TA muscle regeneration
Experimental: Treated and control C57BL/6 male mice were raised on either RD or HFD in individual cages at 22° C. (n=5 per treatment per diet group). In both diet groups, miR-133 ASO treated mice were obviously leaner than the control mice at 4-month after treatment (FIG. 6A).
To induce brown adipocytes in vivo, 10 mg/mL Cardiotoxin solution (50 μl) was intramuscularly injected into TA muscles of 10-week old Pax7-CreER/R26R-tdTomato mice (FIG. 4) or C57BL/6 mice (FIG. 5 and FIG. 6). Alternatively, frozen injury was performed by applying liquid nitrogen cooled tweezers tips directly onto the anterior sides of TA muscles. After 3 days, 20 μg of miR-133 antagomiR or control antagomiR in saline (50 μl) was intramuscularly injected into the same injured TA muscles (on right hindlimbs). To test efficacy of miR-133 ASO in intact muscles, saline, instead of Cardiotoxin, was injected to TA muscles before miR-133 ASO administration (FIGS. 4A, 4B). miR-133 antagomiR and scramble antagomiR were designed as previously described (Krutzfeldt et al., 2005).

[2] = IPGTT glucose tolerance; settings: both diet groups
Source text: (B) Retarded body weight increase over a 16-week body weight monitoring time course in mice received miR-133 ASO treatment during TA muscle regeneration (n=6 per treatment group per diet group). […] Values of total energy expenditure were plotted without normalization to lean body mass. (D) Physical activities measured within light and dark cycles during indirect calorimetry (C) reveal increased physical activities within the dark cycle for miR-133 ASO treated mice (fed the RD). Physical activities are presented as arithmetic means of beam breaking events at X-, Y- and Z-dimensions. (E) IPGTT tests for C57BL/6 mice received either control- or miR-133 ASO treatment (fed the RD; n=6 per group). Error bars: S.E.M., asterisk: significant pair-wise comparison by t-test, *: p≦0.05, **: p≦0.01, ***: p≦0.001, n.s.: not significant.
(§1) This discrepancy may be related to the abnormally low respiratory exchange ratio (˜0.76) in the control mice fed with HFD (FIG. 7D), which indicates an increased proportion of lipid oxidation in the control mice. […] In addition, miR-133 ASO treatment also led to much improved glucose tolerance in both diet groups (FIGS. 6E & 7F).

[3] = system: Fndc5; assay: qRT-PCR of Fndc5 in ASO treated muscles; settings: both RD and HFD conditions
Experimental: Normalized UCP1 levels were calculated based on the densitometry analysis of the UCP1 immunoblot and the α-Tubulin immunoblot. The interscapular brown adipose tissue (iBAT) were included as a control. Asterisk denotes the loading of the iBAT lanes on the UCP1 immunoblot was 1/100 of other lanes to avoid overloading. (B) Immunohistochemistry (IHC) of UCP1 protein reveal miR-133 antagonism induced beige adipocytes within inguinal and epididymal white adipose tissues. […] Error bars: S.E.M., asterisk: significant pair-wise comparison by t-test, *: p≦0.05, **: p≦0.01, ***: p≦0.001.
Total RNA was extracted from cells by TRIzol or Arcturus® PicoPure® RNA Isolation Kit (Applied Biosystems) following manufactures' recommendations. For RT-qPCR of mRNAs, total RNAs were reverse transcribed into cDNAs by SuperScript III (Invitrogen) and a mixture of oligodT18-20 primers and random hexamers. microRNA RT-qPCRs were performed as previously described (Shi and Chiang, 2005).

[4] = system: epididymal white fat depots and liver; assay: H/E staining of fat depots and liver; settings: mice fed the HFD
Source text: as §1

## *mA*mUmAmGmCmUmGmGmUmUmGmAmAmGmGmGmGmAmC*mC*mA*mA*mAChl [miR-133 ASO]
[1]; 4-month period after ASO administration, RD or HFD, C57BL/6 male
  gain in body weight: reduced gain in body weight
[1]; mouse, in vivo
  igWAT and epiWAT weights: significant reduction
  mass of iBAT depots and treated TA muscles: unaffected
[2]
  glucose tolerance: much improved
[3]
  expression of Fndc5 compared to control muscles: increased
[4]
  infiltrating inflammatory cells in the epididymal white fat depots: reduced numbers
  steatosis of the liver: reduced steatosis
